Assay results from the supplement of paper PMC8671470.
± gives the standard deviation of the averaged measurements.

What was measured:
HL-60 = test: cell viability (% survival relative to DMSO control); higher = less cytotoxic; settings: 72 h
In short: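 Four-parameter log-logistic fits in drc and PharmacoGx supplied area under the curve where it is given. Underlying viability came from CellTiter-Glo, normalised to DMSO and proteasome-inhibitor wells, with the proteasome inhibitor at 10 μM. HL-60 cells in RPMI 1640 plus 10% FBS had been rescreened against the full library at five tenfold concentrations of 1–10,000 nM, in duplicate on 384-well plates, with DMSO or 100 nM of one of three metabolic inhibitors, for 72 h at 37 °C, 5% CO2.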

K-562 = test: cell viability (% survival relative to DMSO control, bortezomib = 0%); higher = less cytotoxic; settings: 72 h
In short: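 Reported values are percent survival from duplicate wells, averaged. Fifteen myeloid leukaemia cell lines were treated in 384-well plates with compounds at 1, 10, 100, 1000 or 10000 nM for 72 h at 37 °C in 5% CO2. Signals from CellTiter-Glo luminescence were scaled with vehicle as 100% and a 10 µM positive control as 0%.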

[1] = 0.001 µM, co-treatment: AZD3965 100 nM
[2] = 0.001 µM, co-treatment: DMSO vehicle
[3] = 0.001 µM, co-treatment: GSK2194069 100 nM
[4] = 0.001 µM, co-treatment: pictilisib 100 nM
[5] = 0.01 µM, co-treatment: AZD3965 100 nM
[6] = 0.01 µM, co-treatment: DMSO vehicle
[7] = 0.01 µM, co-treatment: GSK2194069 100 nM
[8] = 0.01 µM, co-treatment: pictilisib 100 nM
[9] = 0.1 µM, co-treatment: AZD3965 100 nM
[10] = 0.1 µM, co-treatment: DMSO vehicle
[11] = 0.1 µM, co-treatment: GSK2194069 100 nM
[12] = 0.1 µM, co-treatment: pictilisib 100 nM
[13] = 1 µM, co-treatment: AZD3965 100 nM
[14] = 1 µM, co-treatment: DMSO vehicle
[15] = 1 µM, co-treatment: GSK2194069 100 nM
[16] = 1 µM, co-treatment: pictilisib 100 nM
[17] = 10 µM, co-treatment: AZD3965 100 nM
[18] = 10 µM, co-treatment: DMSO vehicle
[19] = 10 µM, co-treatment: GSK2194069 100 nM
[20] = 10 µM, co-treatment: pictilisib 100 nM

O=C(NNc1ccccc1)c1ccncc1 [PluriSln 1]
cell viability (HL-60; [1]): 101 ± 1.6% | cell viability (HL-60; [2]): 102 ± 3% | cell viability (HL-60; [3]): 103.4 ± 0.8% | cell viability (HL-60; [4]): 94.1 ± 5.3% | cell viability (HL-60; [5]): 101 ± 3.5% | cell viability (HL-60; [6]): 102 ± 6.3% | cell viability (HL-60; [7]): 103 ± 3.5% | cell viability (HL-60; [8]): 107 ± 11% | cell viability (HL-60; [9]): 96.2 ± 5.6% | cell viability (HL-60; [10]): 102 ± 1.2% | cell viability (HL-60; [11]): 95.8 ± 3.6% | cell viability (HL-60; [12]): 83.7 ± 21% | cell viability (HL-60; [13]): 110 ± 11% | cell viability (HL-60; [14]): 103 ± 1.5% | cell viability (HL-60; [15]): 104 ± 5.4% | cell viability (HL-60; [16]): 116 ± 2.9% | cell viability (HL-60; [17]): 36 ± 2% | cell viability (HL-60; [18]): 49.8 ± 4.2% | cell viability (HL-60; [19]): 91.3 ± 1% | cell viability (HL-60; [20]): 92.411 ± 0.013% | cell viability (K-562; 1 nM): 93.4% | cell viability (K-562; 10 nM): 85.7% | cell viability (K-562; 100 nM): 90.4% | cell viability (K-562; 1000 nM): 86.4% | cell viability (K-562; 10000 nM): 52%

NS(=O)(=O)c1ccc([N+](=O)[O-])cc1 [4-Nitrobenzenesulfonamide]
cell viability (HL-60; [1]): 91.2 ± 9.5% | cell viability (HL-60; [2]): 92.3 ± 10% | cell viability (HL-60; [3]): 96.7 ± 2.9% | cell viability (HL-60; [4]): 105 ± 14% | cell viability (HL-60; [5]): 100.8 ± 0.12% | cell viability (HL-60; [6]): 96.5 ± 4.2% | cell viability (HL-60; [7]): 96.8 ± 3.1% | cell viability (HL-60; [8]): 98.6 ± 2.2% | cell viability (HL-60; [9]): 103 ± 2.7% | cell viability (HL-60; [10]): 104 ± 5.4% | cell viability (HL-60; [11]): 100.73 ± 0.083% | cell viability (HL-60; [12]): 101 ± 1.9% | cell viability (HL-60; [13]): 97.7 ± 3% | cell viability (HL-60; [14]): 104 ± 1.6% | cell viability (HL-60; [15]): 102 ± 6% | cell viability (HL-60; [16]): 99.4 ± 5.1% | cell viability (HL-60; [17]): 90.6 ± 17% | cell viability (HL-60; [18]): 100 ± 1.9% | cell viability (HL-60; [19]): 98.17 ± 0.39% | cell viability (HL-60; [20]): 91.7 ± 7.5% | cell viability (K-562; 1 nM): 103% | cell viability (K-562; 10 nM): 105% | cell viability (K-562; 100 nM): 97.1% | cell viability (K-562; 1000 nM): 94.8% | cell viability (K-562; 10000 nM): 100%

N/C(=N\CCCC(N)C(=O)O)N[N+](=O)[O-] [L-NNA]
cell viability (HL-60; [1]): 104 ± 2.6% | cell viability (HL-60; [2]): 102.6 ± 0.88% | cell viability (HL-60; [3]): 102 ± 4.6% | cell viability (HL-60; [4]): 97.6 ± 1.3% | cell viability (HL-60; [5]): 105 ± 4.7% | cell viability (HL-60; [6]): 99.86 ± 0.89% | cell viability (HL-60; [7]): 99.1 ± 1.9% | cell viability (HL-60; [8]): 95.8 ± 8.7% | cell viability (HL-60; [9]): 106 ± 8.5% | cell viability (HL-60; [10]): 105 ± 1.6% | cell viability (HL-60; [11]): 90.4 ± 40% | cell viability (HL-60; [12]): 102 ± 14% | cell viability (HL-60; [13]): 98.7 ± 2.9% | cell viability (HL-60; [14]): 99.1 ± 3.6% | cell viability (HL-60; [15]): 99.9 ± 4% | cell viability (HL-60; [16]): 96.12 ± 0.83% | cell viability (HL-60; [17]): 101.2 ± 0.57% | cell viability (HL-60; [18]): 102 ± 7% | cell viability (HL-60; [19]): 101 ± 2.3% | cell viability (HL-60; [20]): 100 ± 14% | cell viability (K-562; 1 nM): 104% | cell viability (K-562; 10 nM): 94.9% | cell viability (K-562; 100 nM): 117% | cell viability (K-562; 1000 nM): 92.1% | cell viability (K-562; 10000 nM): 102%

O[C@H]1[C@H]2[C@H](O)CCCN2C[C@H]1O [Swainsonine]
cell viability (HL-60; [1]): 97.6 ± 3.9% | cell viability (HL-60; [2]): 99.37 ± 0.87% | cell viability (HL-60; [3]): 98.4 ± 2.5% | cell viability (HL-60; [4]): 101 ± 4.7% | cell viability (HL-60; [5]): 103.58 ± 0.00097% | cell viability (HL-60; [6]): 104 ± 3.2% | cell viability (HL-60; [7]): 110 ± 12% | cell viability (HL-60; [8]): 108 ± 11% | cell viability (HL-60; [9]): 97.5 ± 0.97% | cell viability (HL-60; [10]): 102 ± 3.9% | cell viability (HL-60; [11]): 97.2 ± 3% | cell viability (HL-60; [12]): 91.9 ± 9.1% | cell viability (HL-60; [13]): 98.4 ± 5.8% | cell viability (HL-60; [14]): 103 ± 0.51% | cell viability (HL-60; [15]): 90.3 ± 3.1% | cell viability (HL-60; [16]): 120 ± 25% | cell viability (HL-60; [17]): 102 ± 2.5% | cell viability (HL-60; [18]): 108 ± 13% | cell viability (HL-60; [19]): 106 ± 16% | cell viability (HL-60; [20]): 106 ± 11% | cell viability (K-562; 1 nM): 109% | cell viability (K-562; 10 nM): 107% | cell viability (K-562; 100 nM): 102% | cell viability (K-562; 1000 nM): 101% | cell viability (K-562; 10000 nM): 107%
